{"source": "patent US20240132463A1", "about": "“SUBSTITUTED N-(2-(2,6-DIOXOPIPERIDIN-3-YL)-1,3-DIOXOISOINDOLIN-5-YL)ARYLSULFONAMIDE ANALOGS AS MODULATORS OF CEREBLON PROTEIN” (ST. JUDE CHILDREN'S RESEARCH HOSPITAL, INC., priority 2020, published 2024)", "key": {"MV4-11 cells": {"test_system": "MV4-11 cells", "test": "MV-4-11 cell viability assay", "type": "cell-based, human", "conditions": "72 hours, Cell Titer Glo", "procedure": "(§2) MV-4-11 cell line was purchased from the American Type Culture Collection (ATCC, Manassas, VA). The cells were cultured according to recommendations in IMDM cell culture media (ATCC). Exponentially growing MV-4-11 cells were plated at 1,000 cells per well in Corning 8804BC white 384-well assay plates and incubated overnight at 37° C. in a humidified 5% CO2 incubator. Compounds were transferred to the assay plate from a dose-response plate using a Pintool on a Biomek FXP Laboratory Automation Workstation (Beckman Coulter). Cytotoxicity was determined following 72 hours of incubation using Promega Cell Titer Glo reagent according to the manufacturer's recommendation. Luminescence was measured on an Envision plate reader (Perkin-Elmer).\nCompounds were screened in human cancer cell lines and each cell line was cultured in the complete medium recommended by the vendor and seeded in Corning 8804BC white 384-well assay plates at density of 1,000, 1,000, 1,000, 1,500 and 7,500 cells per well, for MV4-11, HD-MB03, MB004, MB002 and MHH-CALL4 cells respectively. After overnight incubation at 37° C. in a humidified 5% CO2 incubator, cells were treated with compounds in dose-response format using a Pintool on a Biomek FXP Laboratory Automation Workstation (Beckman Coulter). […] After 72 h incubation, cell proliferation was assessed using Cell Titer-Glo (CTG) luminescent cell viability assay (Promega) according to the manufacturer's instruction. Luminescence signal was measured using an Envision plate reader (Perkin-Elmer)."}, "Aqueous solubility assay": {"test": "Aqueous solubility assay", "type": "physicochemical", "conditions": "aqueous solubility at pH = 7.4, triplicate", "method": "Solubility assays were carried out on a Biomek FX lab automation workstation (Beckman Coulter, Inc., Fullerton, CA) using μSOL Evolution software (pION Inc., Woburn, MA). 10 μL of 10 mM compound stock (in DMSO) was added to 190 μL 1-propanol to make a reference stock plate. 5 μL from this reference stock plate were mixed with 70 μL 1-propanol and 75 μL citrate phosphate-buffered saline (PBS;isotonic) to make the reference plate, and the UV spectrum (250-500 nm) of the reference plate was read. 6 μL of 10 mM test compound stock was added to 594 μL buffer in a 96-well storage plate and mixed. The storage plate was sealed and incubated at RT for 18 h. The suspension was then filtered through a 96-well filter plate (pION Inc., Woburn, MA). 75 μL of filtrate was mixed with 75 μL 1-propanol to make the sample plate, and the UV spectrum of the sample plate was read. Calculations were carried out with μSOL Evolution software based on the area under the curve (AUC) of the UV spectrum of the sample and reference plates. All compounds were tested in triplicate."}, "GSPT1": {"biological_target": "GSPT1 (Homo sapiens (Human), UniProt P15170+Q96SW2)", "sequence (P15170 whole entry)": "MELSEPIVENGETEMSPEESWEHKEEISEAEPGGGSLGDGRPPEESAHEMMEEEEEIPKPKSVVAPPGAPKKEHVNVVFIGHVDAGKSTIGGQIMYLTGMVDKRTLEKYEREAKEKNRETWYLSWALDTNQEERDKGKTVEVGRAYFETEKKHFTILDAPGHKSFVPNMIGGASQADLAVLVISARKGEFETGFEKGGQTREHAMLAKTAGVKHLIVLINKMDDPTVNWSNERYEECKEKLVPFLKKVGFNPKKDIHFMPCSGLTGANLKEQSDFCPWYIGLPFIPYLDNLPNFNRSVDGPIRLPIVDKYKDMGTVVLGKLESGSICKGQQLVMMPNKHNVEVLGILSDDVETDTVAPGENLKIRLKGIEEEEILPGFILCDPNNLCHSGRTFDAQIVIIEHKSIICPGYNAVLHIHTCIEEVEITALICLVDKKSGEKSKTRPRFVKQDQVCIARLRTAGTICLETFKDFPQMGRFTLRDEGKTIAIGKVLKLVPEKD", "sequence (Q96SW2 whole entry)": "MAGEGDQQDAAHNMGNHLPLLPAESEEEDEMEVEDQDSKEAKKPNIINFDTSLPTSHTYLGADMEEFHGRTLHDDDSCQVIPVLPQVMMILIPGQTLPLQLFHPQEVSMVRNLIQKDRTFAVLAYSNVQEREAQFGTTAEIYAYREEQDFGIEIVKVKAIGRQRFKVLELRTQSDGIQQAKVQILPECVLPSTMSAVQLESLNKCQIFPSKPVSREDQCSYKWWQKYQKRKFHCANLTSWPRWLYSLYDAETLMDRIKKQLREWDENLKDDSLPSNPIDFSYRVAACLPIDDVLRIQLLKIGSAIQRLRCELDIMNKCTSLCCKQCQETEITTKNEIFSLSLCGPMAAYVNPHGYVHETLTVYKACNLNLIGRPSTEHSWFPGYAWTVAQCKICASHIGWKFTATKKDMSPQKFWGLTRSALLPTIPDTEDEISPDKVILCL", "sequence (Q16531 whole entry partner)": "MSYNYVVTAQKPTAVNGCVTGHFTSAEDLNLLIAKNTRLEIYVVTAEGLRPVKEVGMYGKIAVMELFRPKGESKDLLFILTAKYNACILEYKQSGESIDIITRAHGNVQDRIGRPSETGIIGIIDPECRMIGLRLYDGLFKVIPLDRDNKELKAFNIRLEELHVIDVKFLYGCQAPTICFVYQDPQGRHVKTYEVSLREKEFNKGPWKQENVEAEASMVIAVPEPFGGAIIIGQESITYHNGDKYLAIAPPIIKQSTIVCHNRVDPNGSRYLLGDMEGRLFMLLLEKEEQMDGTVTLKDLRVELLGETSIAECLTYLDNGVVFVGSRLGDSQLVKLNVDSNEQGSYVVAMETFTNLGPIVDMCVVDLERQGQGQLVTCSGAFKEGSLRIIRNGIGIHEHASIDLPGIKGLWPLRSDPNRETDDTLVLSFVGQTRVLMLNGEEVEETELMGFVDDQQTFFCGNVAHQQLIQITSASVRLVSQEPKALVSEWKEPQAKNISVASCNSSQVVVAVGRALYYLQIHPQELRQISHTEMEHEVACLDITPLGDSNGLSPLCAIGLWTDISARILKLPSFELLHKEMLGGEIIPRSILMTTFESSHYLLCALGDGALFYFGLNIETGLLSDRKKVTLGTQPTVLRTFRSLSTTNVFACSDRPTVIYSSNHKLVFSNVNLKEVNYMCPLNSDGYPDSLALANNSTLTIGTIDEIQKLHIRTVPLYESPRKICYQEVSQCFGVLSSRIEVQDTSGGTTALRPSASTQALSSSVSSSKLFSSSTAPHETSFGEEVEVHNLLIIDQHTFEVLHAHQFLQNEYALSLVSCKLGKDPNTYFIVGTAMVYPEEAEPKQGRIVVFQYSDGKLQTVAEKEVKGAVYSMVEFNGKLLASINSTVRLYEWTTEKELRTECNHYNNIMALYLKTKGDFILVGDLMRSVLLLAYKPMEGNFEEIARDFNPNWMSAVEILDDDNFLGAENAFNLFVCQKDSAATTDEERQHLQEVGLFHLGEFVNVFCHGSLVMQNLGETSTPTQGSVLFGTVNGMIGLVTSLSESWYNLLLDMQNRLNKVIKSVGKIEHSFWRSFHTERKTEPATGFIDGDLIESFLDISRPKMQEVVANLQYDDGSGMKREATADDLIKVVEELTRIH", "test": "GSPT1 degradation by immunoblot in MV4-11 cells", "type": "cell-based", "conditions": "MV4-11 cells, 4 hours, at 100 nM", "method": "MV4-11 cells were seeded in 6-well plates (1×10^6 cells per well). After overnight incubation, the cells were treated with indicated concentrations for specific timepoints. […] After blocking the membrane with LI-COR TBS blocking buffer and incubation in primary antibody overnight, the corresponding protein signals were detected using IRDye secondary antibodies and Odyssey Imaging System. Image Studio Lite Ver 5.2 was used for blot quantification. […] IRDye® 800CW Goat anti-Mouse IgG Secondary Antibody and IRDye® 68ORD Goat anti-Rabbit IgG Secondary Antibody were used as secondary antibodies."}, "[1]": {"test": "Liver microsomes stability assay (mouse)", "type": "in vitro ADME", "method": "(§1) The liver microsome stability assay was carried as previously described (Refs. 40-41). NADPH regenerating agent solutions A and B and mouse liver microsomes (CD-1) were obtained from BD Gentest (Woburn, MA). Pooled human liver microsomes were purchased from XenoTech (Lenexa, KS). Ninety-six deep well plates were obtained from Midsci (St. Louis, MO). Ninety-six analytical plates were obtained from Corning Incorporated (Acton, MA). Sample preparation for microsomal stability was modified from Di's publications. A set of incubation times of 0, 15, 30, 60, 120, and 240 min were used. DMSO stock solutions of test compounds and verapamil (system control) were prepared at 10 mM concentration. Concentrated human or mouse liver microsomes (20 mg/mL protein concentration) and 0.5 M EDTA were diluted into 0.1 M potassium phosphate buffer (pH 7.4) and mixed well, followed by compounds solutions being spiked. This solution was mixed and 90 μL was transferred to 6 time points plates (each in triplicate wells). For the time 0 h plate, 3 fold (v:v) cold acetonitrile with internal standard (40 ng/ml warfarin) was added to each well, followed by addition of NADPH regenerating agent (mixing NADPH solutions A and B in PBS, pH7.4) and no incubation. […] The metabolic stability was evaluated via the half-life from least-squares fit of the multiple time points based on first-order kinetics."}, "[2]": {"test": "Liver microsomes stability assay (human)", "type": "in vitro ADME", "method": "as §1"}, "[3]": {"test": "Plasma protein binding assay (mouse)", "type": "in vitro ADME", "method": "Stock solutions were prepared at 10 mM in DMSO. Dulbecco's phosphate buffered saline (DPBS; pH 7.4) was obtained from Invitrogen (Carlsbad, CA). Single-Use RED (rapid equilibrium dialysis) device was obtained from Thermo scientific (Rockford, IL). Human and mouse plasma were obtained from GeneTex (Irvine, CA). Sample preparation for plasma protein binding was modified from Waters' method (see Waters, N.J., et al., J Pharm Sci. 2008 October; 97(10):4586-95). The Teflon base plate with the RED inserts was used without any pre-conditioning the membrane inserts. Plasma was thawed and centrifuged at 1000 rpm for 10 min to remove any particulates. Each compound was prepared at 10 μM in human or mouse plasma. Spiked plasma solutions (300 μL) were placed into the sample chamber (indicated by the red ring) and 500 μL of DPBS into the adjacent chamber. The plate was sealed and incubated at 37° C. on an orbital shaker (100 rpm) for 4 hours. After incubation, the seal was removed from the RED plate and the volume of the insert confirmed-little to no volume change occurred. […] The test compound concentrations were quantified in both buffer and plasma chambers via peak areas relative to the internal standard. The percentage of the test compound bound to plasma was calculated on following equations: % Free=(Concentration buffer chamber/concentration plasma chamber)×100% and % Bound=100%-% Free."}, "caspase 3/7": {"test_system": "caspase 3/7", "test": "Caspase 3/7 activity assay", "type": "cell-based, human", "conditions": "MV4-11 cells, Caspase-Glo, 4, 8 and 24 hours, 10 and 100 nM"}, "[4]": {"test_system": "CRBN knockout MV4-11 cells", "test": "Cell viability in CRBN knockout MV4-11 cells", "type": "cell-based, human", "conditions": "CRBN knockout vs wild-type MV4-11 cells", "procedure": "as §2\nCRBN-deficient MV4:11 cells were generated using CRISPR-Cas9 technology. […] Five days post nucleofection, cells were single-cell sorted by FACs to enrich for GFP+(transfected) cells, clonally selected, and verified for the desired targeted modification via targeted deep sequencing using gene specific primers with partial Illumina adapter overhangs (hCRBN.F—5′-[sequence]-3′ (SEQID: 6) and hCRBN.R—5′-[sequence]-3′, (SEQID: 7); overhangs not shown) and analyzed using CRIS.py (Ref. 36)."}}}
{"smiles": "O=C1CCC(N2C(=O)c3ccc(NS(=O)(=O)c4ccccc4OC(F)(F)F)cc3C2=O)C(=O)N1", "note": "(stereo not shown) [Compound 1, N-(2-(2,6-dioxopiperidin-3-yl)-1,3-dioxoisoindolin-5-yl)-2-(trifluoromethoxy)benzenesulfonamide]", "values": [{"measurement": "MV4-11 EC50", "setting": "MV4-11 cells", "value": "among the most potent"}, {"measurement": "Sol.", "setting": "Aqueous solubility assay", "value": 67, "unit": "µM"}, {"measurement": "GSPT1 protein degradation", "setting": "GSPT1", "value": 90, "unit": "%"}, {"measurement": "intrinsic clearance Clint", "setting": "[1]", "value": 12, "unit": "mL/min/kg"}, {"measurement": "liver microsomes t1/2", "setting": "[1]", "value": 4.7, "unit": "h"}, {"measurement": "intrinsic clearance Clint", "setting": "[2]", "value": 4, "unit": "mL/min/kg"}, {"measurement": "liver microsomes t1/2", "setting": "[2]", "value": 5.7, "unit": "h"}, {"measurement": "Plasma protein binding", "setting": "[3]", "value": 99.3, "unit": "%"}, {"measurement": "caspase activation", "setting": "caspase 3/7", "value": "measurable at 8 hours"}, {"measurement": "antiproliferative activity in absence of CRBN", "setting": "[4]", "value": "abolished"}]}
